Test results taken from ChEMBL document CHEMBL5252541, “Repurposing antipsychotic drugs into antifungal agents: Synergistic combinations of azoles and bromperidol derivatives in the treatment of various fungal infections” (Eur J Med Chem, 2017).
Active and inactive are the calls of the source. No cut-off for these calls is given here.

Key:
Candida albicans [1] = test: Antifungal activity against Candida albicans ATCC MYA-2876 measured after 48 hrs by broth microdilution analysis; assay type: functional
Candida albicans [2] = test: Synergistic antifungal activity against Candida albicans ATCC 64124 assessed as compound MIC measured after 48 hrs in presence of voriconazole by checkboard based microplate reader analysis; assay type: functional
Aspergillus terreus = test: Antifungal activity against Aspergillus terreus ATCC MYA-3633 measured after 48 hrs by broth microdilution analysis; assay type: functional
Candida albicans [3] = test: Synergistic antifungal activity against Candida albicans ATCC 10231 assessed as compound MIC measured after 48 hrs in presence of itraconazole by checkboard based microplate reader analysis; assay type: functional
Candida albicans [4] = test: Synergistic antifungal activity against Candida albicans ATCC 90819 assessed as fractional inhibitory concentration index measured for 72 hrs in presence of voriconazole; assay type: functional
Candida albicans [5] = test: Potency index, ratio of posaconazole MIC to test compound MIC for antifungal activity against Candida albicans ATCC 10231 measured after 48 hrs by broth microdilution analysis; assay type: functional
Candida albicans [6] = test: Synergistic antifungal activity against Candida albicans ATCC 64124 assessed as compound MIC measured after 48 hrs in presence of fluconazole by checkboard based microplate reader analysis; assay type: functional
HEK293 = test: Cytotoxicity against human HEK293 cells assessed as cell survival at 64 microg/ml by XTT assay; assay type: toxicity, cell-based; settings: dose 64 µg/ml
Candida albicans [7] = test: Synergistic antifungal activity against Candida albicans ATCC 10231 assessed as compound MIC measured after 48 hrs in presence of voriconazole by checkboard based microplate reader analysis; assay type: functional
[8] = Cytotoxicity against human HEK293 cells assessed as cell survival at 16 microg/ml in presence of posaconazole by XTT assay; assay type: toxicity, cell-based; settings: at 16 µg/mL
Candida albicans [9] = test: Partial synergistic antifungal activity against Candida albicans ATCC 64124 assessed as fractional inhibitory concentration index measured for 72 hrs in presence of ketoconazole; assay type: functional
Candida albicans [10] = test: Synergistic antifungal activity against Candida albicans ATCC 10231 assessed as compound MIC measured after 48 hrs in presence of ketoconazole by checkboard based microplate reader analysis; assay type: functional
BEAS-2B [11] = test: Cytotoxicity against human BEAS-2B cells assessed as cell survival at 8 microg/ml by XTT assay; assay type: toxicity, cell-based; settings: dose 8 µg/ml
Candida albicans [12] = test: Synergistic antifungal activity against Candida albicans ATCC 10231 assessed as compound MIC measured after 48 hrs in presence of fluconazole by checkboard based microplate reader analysis; assay type: functional
Candida albicans [13] = test: Antifungal activity against Candida albicans ATCC MYA-2310 measured after 48 hrs by broth microdilution analysis; assay type: functional
Candida albicans [14] = test: Fungicidal activity against Candida albicans ATCC 64124 assessed as reduction in colony forming units at 2 to 8 times MIC incubated after 6 hrs by time kill assay; assay type: functional, organism-based
BEAS-2B [15] = test: Cytotoxicity against human BEAS-2B cells assessed as cell survival at 64 microg/ml by XTT assay; assay type: toxicity, cell-based; settings: dose 64 µg/ml
Candida albicans [16] = test: Synergistic antifungal activity against Candida albicans ATCC 64124 assessed as fractional inhibitory concentration index measured for 72 hrs in presence of voriconazole; assay type: functional
Candida albicans [17] = test: Partial synergistic antifungal activity against Candida albicans ATCC MYA-1003 assessed as fractional inhibitory concentration index measured for 72 hrs in presence of voriconazole; assay type: functional
Candida albicans [18] = test: Synergistic antifungal activity against Candida albicans ATCC 64124 assessed as compound MIC measured after 48 hrs in presence of posaconazole by checkboard based microplate reader analysis; assay type: functional
Candida albicans [19] = test: Partial synergistic antifungal activity against Candida albicans ATCC 10231 assessed as fractional inhibitory concentration index measured for 72 hrs in presence of voriconazole; assay type: functional
Candida albicans [20] = test: Partial synergistic antifungal activity against Candida albicans ATCC 64124 assessed as fractional inhibitory concentration index measured for 72 hrs in presence of itraconazole; assay type: functional
Candida albicans [21] = test: Antifungal activity against Candida albicans ATCC 64124 measured after 48 hrs by broth microdilution analysis; assay type: functional
Candida albicans [22] = test: Additive antifungal activity against Candida albicans ATCC MYA-1237 assessed as fractional inhibitory concentration index measured for 72 hrs in presence of voriconazole; assay type: functional

Q: With O=C(CCCN1CCC(O)(c2ccc(Br)cc2)CC1)c1ccc(F)cc1 [BROMPERIDOL] as the compound, how does the MIC (Candida albicans [1]) read?
A: Its MIC is greater than 128 µg/mL.

Q: And the MIC (Candida albicans [2])?
A: Its MIC is 8 µg/mL.

Q: And the MIC (Aspergillus terreus)?
A: The MIC was greater than 128 µg/mL.

Q: And the MIC (Candida albicans [3])?
A: The MIC was 64 µg/mL.

Q: And the “fractional inhibitory concentration index (FICI)” value (Candida albicans [4])?
A: The value was 0.5.

Q: And the Ratio (Candida albicans [5])?
A: The Ratio was 8.

Q: What about the MIC (Candida albicans [6]) of the same compound?
A: The MIC was 64 µg/mL.

Q: What about the Activity (HEK293) of the same compound?
A: Its Activity is “Non-Toxic”.

Q: What about the MIC (Candida albicans [7]) of the same compound?
A: The MIC was 32 µg/mL.

Q: And the viability at 16 microg/ml [8]?
A: The viability at 16 microg/ml was 40%.

Q: What about the “fractional inhibitory concentration index (FICI)” value (Candida albicans [9]) of the same compound?
A: The value was 0.75.

Q: And the MIC (Candida albicans [10])?
A: Its MIC is 32 µg/mL.

Q: What about the Activity (BEAS-2B [11]) of the same compound?
A: Its Activity is “Non-Toxic”.

Q: And the MIC (Candida albicans [12])?
A: The MIC was 64 µg/mL.

Q: What about the MIC (Candida albicans [13]) of the same compound?
A: The MIC was greater than 128 µg/mL.

Q: What about the Activity (Candida albicans [14]) of the same compound?
A: The Activity was “Active”.

Q: What about the Activity (BEAS-2B [15]) of the same compound?
A: Its Activity is “Non-Toxic”.

Q: And the “fractional inhibitory concentration index (FICI)” value (Candida albicans [16])?
A: Its value is 0.19.

Q: What about the “fractional inhibitory concentration index (FICI)” value (Candida albicans [17]) of the same compound?
A: Its value is 0.52.

Q: And the MIC (Candida albicans [18])?
A: Its MIC is 4 µg/mL.

Q: What about the “fractional inhibitory concentration index (FICI)” value (Candida albicans [19]) of the same compound?
A: The value was 0.75.

Q: And the “fractional inhibitory concentration index (FICI)” value (Candida albicans [20])?
A: The value was 0.56.

Q: And the MIC (Candida albicans [21])?
A: The MIC was greater than 128 µg/mL.

Q: What about the “fractional inhibitory concentration index (FICI)” value (Candida albicans [22]) of the same compound?
A: Its value is 2.
